Reference: patent publication US4031231A, “Antibacterial composition comprising 3-fluoro-D-alanine or deutero analog in combination with auto-antagonist inhibitor” (priority 1976, dated 1977)
In brackets after ≈: the same amount, converted by molar mass. Where two headings read alike, the source gives them in different places.

What was measured:
[1] = system: Escherichia coli (Strain 2017); test: Growth inhibition (complete repression of growth) of Escherichia coli culture; format: cell-based; details: for concentration of FDA-autoantagonist-inhibitor at which growth is completely repressed in combination with 3-fluoro-D-alanine / inhibitor-effective concentration as percentage of its own minimum effective antibacterial concentration: combined with 3-fluoro-D-alanine at 50 μg/ml
Description: When the 3-fluoro-D-alanine, at this concentration of 50 μg/ml, is combined with an FDA-autoantagonist-inhibitor, such as cycloserine at concentrations of only 0.39 μg/ml, terizidone at 0.8 μg/ml, D-4-(1'-methyl-3'-oxo-1'-butenyl)amino-3-isoxazolidinone or its sodium salt at 0.72 μg/ml, or D-cis-cyclothreonine at approximately 2 μg/ml, growth of the Escherichia coli is completely repressed.

Escherichia coli 2017 = test: Survival of mice infected with Escherichia coli 2017; format: in vivo, Escherichia coli 2017; female C.D.1 mice; details: for number of survivors in each group of five infected mice: subcutaneous, 3 LD50
Description: Groups of five female C.D.1 mice of average weight 21.0 g are injected intraperitoneally with 0.5 ml of a diluted broth culture of Escherichia coli 2017 representing 3 LD50 of bacterial pathogens. The indicated dosages of 3-fluoro-D-alanine (FDA) and D-cycloserine are then promptly administered in a 0.5 ml volume by the subcutaneous route on the dorsal surface.
Across the top row of the tabulation are listed the number of mice surviving (in each group of five infected mice) for the indicated doses (mg) of 3-fluoro-D-alanine alone; in the first vertical column are listed the number surviving for the indicated doses (mg) of cycloserine alone; and in the second vertical column are listed the number of mice surviving for combination doses of 5.0 mg of 3-fluoro-D-alanine and the indicated amount (mg) of cycloserine.

[2] = system: Staphylococcus aureus 2949; test: Protection of mice infected with Staphylococcus aureus 2949 (ED50); format: in vivo, Staphylococcus aureus 2949; female C.D.1 mice; details: 30 LD50; subcutaneous at 0, 2, 4 hours; 50% protected for 7 days
Description: (§1) Female C.D.1 mice of average weight 21.0 g. are injected intraperitoneally with 0.5 ml. of an appropriate dilution of a 16-hour broth culture containing the indicated pathogen. (The severity of the infectious challenge is represented in each case as the multiple of the dilution of the broth culture which is lethal for only 50% of the untreated population, i.e. No. LD50.) Appropriate dosages of 3-fluoro-D-alanine(FDA) and D-cycloserine, individually, and combinations of these two components in a fixed ration of 1:1 are administered in 0.5 ml volume subcutaneously on the dorsal surface, promptly at the time of the injection, and at 2 hour and 4 hour intervals thereafter. The results of these tests, which are expressed as the ED50 dose, which is the statistically interpolated dose required to protect 50% of the infected population for a period of 7 days following challenge and treatment, are as follows: […]

[3] = system: Escherichia coli (Strain 2017); test: Growth inhibition (complete repression of growth) of Escherichia coli culture; format: cell-based; details: for MIC: Escherichia coli, read-out: minimum concentration for complete inhibition (repression) of growth
Serratia species 3374 = test: Protection of mice infected with Serratia species 3374 (ED50); format: in vivo, Serratia species 3374; female C.D.1 mice; details: 3 LD50; subcutaneous at 0, 2, 4 hours; 50% protected for 7 days
Description: as §1

[4] = Stability in aqueous solution; format: physicochemical
[5] = Release of cycloserine or methyl-cycloserine in vivo when administered clinically; details: for effectiveness in releasing cycloserine or methyl-cycloserine in vivo: administered clinically, substantially avoiding dimerization
[6] = individual component alone, E. coli Strain 2017

SMILES	concentration of FDA-autoantagonist-inhibitor at which growth is completely repressed in combination with 3-fluoro-D-alanine [1]	inhibitor-effective concentration as percentage of its own minimum effective antibacterial concentration [1]	ED50, individual components [2] [mg/dose]	MIC [3, 6] [µg/mL]	ED50, individual components (Serratia species 3374) [mg/dose]	stability in aqueous solution [4]	effectiveness in releasing cycloserine or methyl-cycloserine in vivo [5]	other results
O=C1NOCC1/N=C/c1ccc(/C=N/C2CONC2=O)cc1 (stereo not drawn) [terizidone]	0.8 µg/mL	less than 2%						
C[C@@H]1ONC(=O)[C@@H]1N [D-cis-cyclothreonine]	approximately 2 μg/ml	less than 2%						
N[C@@H]1CON=C1O [cycloserine, D-4-amino-3-isoxazolidinone, reference compound]	0.39 µg/mL	less than 2%	0.400	25 (≈ 245 µM)	2.5			suppression of the autoantagonism shown by 3-fluoro-D-alanine (Escherichia coli 2017; 0.156 mg of cycloserine with 5.0 mg of 3-fluoro-D-alanine): completely suppresses the autoantagonism; number of survivors in each group of five infected mice (Escherichia coli 2017; D-cycloserine alone 0.078 mg): 0 mice; number of survivors in each group of five infected mice (Escherichia coli 2017; D-cycloserine alone 0.312 mg): 0 mice; number of survivors in each group of five infected mice (Escherichia coli 2017; D-cycloserine alone 1.25 mg): 3 mice; number of survivors in each group of five infected mice (Escherichia coli 2017; D-cycloserine alone 5.0 mg): 5 mice; protection (Escherichia coli 2017; cycloserine alone, 0.156 mg): zero protection; minimum concentration for complete inhibition (repression) of growth [3, 6]: 25 µg/mL
CC(=O)C(C)=C(C)N[C@@H]1CONC1=O [D-4-(1',2'-dimethyl-3'-oxo-1'-butenyl)amino-3-isoxazolidinone]						remarkably stable in aqueous solution	extremely effective	
CC(=O)C=C(C)N[C@@H]1CONC1=O [D-4-(1'-methyl-3'-oxo-1'-butenyl)amino-3-isoxazolidinone]	0.72 µg/mL					remarkably stable in aqueous solution	extremely effective	effectiveness in releasing cycloserine in the blood stream and in the bladder ([5]; blood stream, bladder): of particular effectiveness
N[C@H](CF)C(=O)O [FDA, 3-fluoro-D-alanine]			0.801	3.12 (≈ 29.1 µM)	1.7			survival (Escherichia coli 2017; 1.25 mg dose of 3-fluoro-D-alanine alone): 80%; survival (Escherichia coli 2017; 5.0 mg dose of 3-fluoro-D-alanine alone (autoantagonism)): 20%; number of survivors in each group of five infected mice (Escherichia coli 2017; FDA alone 0.078 mg): 0 mice; number of survivors in each group of five infected mice (Escherichia coli 2017; FDA alone 0.312 mg): 3 mice; number of survivors in each group of five infected mice (Escherichia coli 2017; FDA alone 1.25 mg): 4 mice; number of survivors in each group of five infected mice (Escherichia coli 2017; FDA alone 5.0 mg): 1 mice; MIC ([1]; Escherichia coli, read-out: concentration at which growth is completely repressed): 3.2 µg/mL (≈ 29.9 µM); growth of the organism at higher concentration (autoantagonist action) ([3]; 3-fluoro-D-alanine alone at 50 μg/ml): extensive growth
